SMILES strings stand for the structures. Entries after “also recorded” stand apart in the source; their conditions may differ.

The test system of one test is mice lacking PSAM-GlyR. In words: Pain models (carrageenan, CFA, sural-SNI) in mice lacking PSAM-GlyR (ligand-alone control). In kind it is in vivo, mouse. The following applies: 30 mg/kg i.p. The text has this:
Methods. Animals: All animals were kept on a standard 12:12 light/dark cycle in micro-isolator caging racks (Allentown Caging) with food and water provided ad libitum. Mouse strains obtained from Jackson Laboratories include C57Bl/6J (JAX #000664), Calr^Cre (JAX #010774) and CCK^Cre (JAX #012706). Adeno-associated viruses (AAV2/8) used in these experiments: hSyn-Flex-rev-PSAM^L141F-GlyR-IRES-eGFP (7^12 vg/ml) and hSyn-Flex-rev-PSAM^L141F,Y115F-GlyR-IRES-eGFP (1.7^13 vg/ml) were custom made by UNC Vector core based on plasmid material developed by Scott Sternson and provided by Addgene. The hSyn-Flex-rev-PSAM^L141F-GlyR-IRES-eGFP (7^12 vg/ml) was used in all experiments except FIG. 8 (e,f). For these experiments, hSyn-Flex-rev-PSAM^L141F,Y115F-GlyR-IRES-eGFP (1.7^13 vg/ml) was used. Methods including: intra-spinal virus injections, paw withdrawal threshold to von Frey filaments, to cotton swab, Hargreaves, pinprick and acute pain behaviors licking, guarding, flicking are all as previously described (Peirs, C. et al. Dorsal Horn Circuits for Persistent Mechanical Pain. Neuron 87, 797-812 (2015); Seal, R. P. et al. Injury-induced mechanical hypersensitivity requires C-low threshold mechanoreceptors. Nature 462, 651-655, (2009)); For paw withdrawal threshold to pressure: mice were lightly restrained by hand such that their rear legs were allowed to freely hang. Using a Pressure Application Measurement device (Ugo Basile) the hind paw was grasped between the experimenter's forefinger and thumb (with pressure transducer on the thumb), and force was slowly applied to the paw until the mouse struggled or flicked its limb (paw withdrawal threshold, PWT). The final force in grams was recorded. Each mouse was tested on the left and right paw for three trials with a ten-minute inter-trial interval between applications, and the three results averaged for each paw. Injury Models including incision, complete Freund's adjuvant, spared nerve injury tibial and sural models, carrageenan, methylglyoxal and multi-dose streptozotocin are as previously described (Peirs, C. et al. Dorsal Horn Circuits for Persistent Mechanical Pain. Neuron 87, 797-812 (2015); Seal, R. P. et al. Injury-induced mechanical hypersensitivity requires C-low threshold mechanoreceptors. Nature 462, 651-655, (2009); Decosterd, I. and Woolf, C. J. Spared nerve injury: an animal model of persistent peripheral neuropathic pain. Pain 87, 149-158 (2000); Bierhaus, A. et al. Methylglyoxal modification of Nav1.8 facilitates nociceptive neuron firing and causes hyperalgesia in diabetic neuropathy. Nat Med 18, 926-933 (2012); Cavanaugh, D. J. et al. Distinct subsets of unmyelinated primary sensory fibers mediate behavioral responses to noxious thermal and mechanical stimuli. Proc Natl Acad Sci USA 106, 9075-9080, (2009)). Chemogenetic Activation of PSAM-GlyR Receptor: Behavior thresholds were performed as described above in AAV8-hSyn-DIO-PSAM-GlyR-IRES-GFP injected mice. PSEM^89S at 30 mg/kg was injected intraperitoneally 15 minutes prior to testing. Immunohistochemistry was performed as previously described (Peirs, C. et al. Dorsal Horn Circuits for Persistent Mechanical Pain. Neuron 87, 797-812 (2015); Seal, R. P. et al. Injury-induced mechanical hypersensitivity requires C-low threshold mechanoreceptors. Nature 462, 651-655 (2009)). α-bungarotoxin conjugated to Alexa-647 (1:1000; ThermoFisher B35450), α-bungarotoxin conjugated to Alexa-488 (1:1000; ThermoFisher B13422). Imaging: Spinal cord sections were imaged with a confocal laser-scanning microscope (Nikon A1R) and Nikon Elements software using 405-, 488-, 561- and 640 nm excitation laser light. In order to suppress emission crosstalk, the microscope was configured to perform all scanning in sequential mode. Z-series were scanned at 20× magnification with an oil immersion lens and a z-step of 5.0 μm. Quantification and Statistical Analysis: all data are reported as mean±SEM. For acute behaviors, a two-tailed Student's t-test was used. […]

A further test concerns the target T1, PSAM-GlyR (Homo sapiens, UniProt P23415+P36544, L141F).
T1 construct: plasmid from Addgene (Sternson); host or cells: mouse dorsal horn neurons transduced with Cre-dependent AAV2/8 (Tlx3^Cre, CCK^Cre or Calr^Cre mice)
In words: Patch clamp electrophysiology in spinal cord slices of Tlx3^Cre mice injected with AAV8-Flex-PSAM-GlyR. The test is classed as tissue-based, mouse. Here is the method: FIGS. 6A and 6B. Positive and negative controls for PSAM-GlyR and PSEM^89S. (a) Schematic of PSAM-GlyR construct with GFP reporter used to make AAV8-hSyn-Flex-PSAM-GlyR. Virus was injected into Tlx3^Cre mice for electrophysiological slice recordings. (b) Electrode impaling a GFP^+ cell (also shown as DI, image) in a transverse slice of the dorsal horn from a Tlx3^Cre mouse injected with AAV8-hSyn-Flex-PSAMGlyR virus. […] (e) Control for the specificity of α-BTX-Alexa647. Contralateral dorsal horn lacks staining for α-BTX-Alexa647. Calretinin (green in original); PKCγ. Scale bar=50 μm. Box indicates area of inset. (f) In mice lacking PSAM-GlyR, mechanical allodynia and heat hypersensitivity induced by the carrageenan pain model are not altered by injection of PSEM^89S (30 mg/kg, i.p.) (p>0.999, n=4) (g) Punctate and dynamic allodynia induced by CFA are also not altered by injection of PSEM^89S (p>0.999, n=6). (h) In the mice lacking PSAM-GlyR, punctate and dynamic allodynia induced by the sural-SNI model are not altered by injection of PSEM^89S (30 mg/kg, i.p.) ([…], n=6). Data are mean±standard error of the mean (SEM). ***P<0.001; ns=not significant (i.e. p>0.05)
Prior to assessing the role of the neurons in somatosensory behavior, the ability of PSAM-GlyR to inhibit excitatory interneurons in the dorsal horn was tested using electrophysiological recordings in spinal cord slices. AAV8-Flex-PSAM-GlyR was injected intraspinally into the dorsal horn of P16 Tlx3^Cre mice. In this mouse line, the recombinase is strictly expressed by excitatory neurons located throughout laminae I-III. Three weeks later, neuronal excitability was measured using patch clamp electrophysiology in spinal cord slices in the presence and absence of PSEM^89S (FIG. 6(a-d)). To identify PSAM-GlyR^+ neurons, we identified cells expressing green fluorescent protein (GFP), which is also encoded by the PSAM-GlyR viral construct (FIG. 6(a,b)). […] We also tested the effect of the ligand PSEM^89S on pain behavior in mice lacking the receptor (FIG. 6(f,h)).
In general terms: In patch-clamp work, channel activity is measured electrically.

T1 sequence (P36544+P23415 fused P36544:L141F): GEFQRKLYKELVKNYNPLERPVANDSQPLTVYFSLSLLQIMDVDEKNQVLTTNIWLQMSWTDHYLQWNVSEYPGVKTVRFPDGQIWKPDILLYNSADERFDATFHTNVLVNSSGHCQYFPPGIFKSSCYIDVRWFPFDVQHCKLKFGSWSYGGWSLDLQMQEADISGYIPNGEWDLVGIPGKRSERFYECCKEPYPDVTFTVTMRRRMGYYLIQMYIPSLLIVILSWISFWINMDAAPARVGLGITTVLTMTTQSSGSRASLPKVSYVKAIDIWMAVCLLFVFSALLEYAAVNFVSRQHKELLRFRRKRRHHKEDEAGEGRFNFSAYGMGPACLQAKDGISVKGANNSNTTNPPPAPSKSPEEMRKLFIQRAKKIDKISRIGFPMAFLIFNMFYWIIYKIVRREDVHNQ

Regarding `COc1ccc(OC)c(C(=O)NC2CN3CCC2CC3)c1` (stereo not drawn) [PSEM^89S], in the test on mice lacking PSAM-GlyR, the “dynamic allodynia induced by the sural-SNI model” value is reported as “not altered” and the “punctate allodynia induced by the sural-SNI model” value was “not altered”. Further, in the test on mice lacking PSAM-GlyR (p>0.999), the “dynamic allodynia induced by CFA” value is on record as “not altered; also recorded: no effect”; the “heat hypersensitivity, carrageenan pain model” value was “not altered; also recorded: no effect”; the “mechanical allodynia, carrageenan pain model” value is given as “not altered; also recorded: no effect”; the “punctate allodynia induced by CFA” value is recorded as “not altered; also recorded: no effect”. For the same compound, the “decrease of membrane potential” value on PSAM-GlyR (30 μM PSEM^89S applied to spinal cord slices, GFP^+ neurons, n=3 cells from 2 mice) is reported as −7.3±3.4 mV. In addition, the “action potentials generated by current injection” value at PSAM-GlyR (30 μM, GFP^+ cells) was “completely blocked”. In addition, the “hyperpolarization on bath application” value on PSAM-GlyR (30 μM, specifically in GFP-expressing cells) is reported as “sustained hyperpolarization”.

These data come from patent publication US11713470B2, “Targeted gene therapies for pain and other neuro-related disorders” (University of Pittsburgh—Of the Commonwealth System of …, priority 2017, dated 2023).
